The record followed here is paper PMC5589637, “New perspectives of cobalt tris(bipyridine) system: anti-cancer effect and its collateral sensitivity towards multidrug-resistant (MDR) cancers” (Oncotarget, 2017).

pIC50: −log10 of the molar value.

In general, pIC50 refers to −log10 of the IC50, conventionally taken in molar units. A lower pIC50 goes with a high IC50.

One data set addresses P-gp (Homo sapiens, UniProt P08183). The following applies: taxol-resistant MCF-7, HCT-8 and A549, 0.5-10 μM, 4 h, dose-dependent.
Data set [1] has as its system A549 taxol-sensitive cancer cells. In words: MTT cytotoxicity, taxol-sensitive A549. Format: cell-based. The following applies: 72 h. The source says: (§1) All cells were obtained from the American Type Culture Collection (Rockville, MD, USA) unless otherwise specified. Immortalized wild-type and Atg7-deficient mouse embryonic fibroblasts (MEFs) were kindly provided by Professor Masaaki Komatsu (Juntendo University, School of Medicine, Japan). Taxol-resistant types of MCF-7, HCT-8, A549 cancers cells and cisplatin-resistant SGC7901 cancer cells were purchased from KeyGEN BioTECH, China. Cisplatin-sensitive or –resistant A2780, OV2008 and C13 cancer cells were kindly provided by Prof. Benjamin Tsang (Department of Obstetrics and Gynecology and Department of Cellular and Molecular Medicine, University of Ottawa, Canada). HCT116 p53^+/+ and p53^−/− isogenic human colon cancer cells were kindly provided by Professor Bert Vogelstein (Ludwig Center at Johns Hopkins, Howard Hughes Medical Institute, USA). All media were supplemented with 10% fetal bovine serum and antibiotics penicillin (50 U/ml) and streptomycin (50 μg/ml; Invitrogen, Paisley, Scotland, UK). All cell cultures were incubated at 37°C in a 5% humidified CO2 incubator.
(§2) All tested compounds were dissolved in DMSO at a final concentration of 50 mmol/L and stored at −20°C before use. Cytotoxicity was assessed by using the 3-(4,5-dimethylthiazol-2-yl)-2, 5-diphenyltetrazolium bromide (MTT) (5.0 mg/ml) assay as previously described. Briefly, 4×10^3 cells per well were seeded in 96-well plates before drug treatments. After overnight culture, the cells were then exposed to different concentrations of selected compounds ([…]) for 72 hours. Cells without drug treatment were used as control. Subsequently, MTT (10 μL) solution was added to each well and incubated at 37°C for 4 hours followed by the addition of 100 μL solubilization buffer (10%SDS in 0.01 mol/L HCl) and overnight incubation. A570 nm was then determined in each well on the next day. The percentage of cell viability was calculated using the following formula: Cell viability (%) = Atreated/Acontrol × 100. Data were obtained from three independent experiments.

Data set [2] is described as follows: Pharmacokinetic study (HPLC-MS of blood samples). Format: in vivo. The following applies: male C57BL/6 mice. As to the method:
Pharmacokinetic study of cobalt complex 2 was performed in male C57BL/6 mice by the dosage of 40 mg/kg. The source of mouse and practice of husbandry were the same as described in the methodology section of LLC-1 Xenograft Tumor experiment. Cobalt complex 2 was diluted in the formula (PEG400: H2O: Ethanol = 6:3:1) and administered by intraperitoneal in a volume of 0.005 mL/g bodyweight. After dosing, blood samples were collected to sodium heparin anticoagulant tube at different time points (5, 15, 30 min, and then 1, 2, 4, 8, 12 and 24 hours); 4 mice were used for each time point. Approximately 200 μL of blood was collected via orbital vein from each anesthetized mouse by isoflurane. Plasma was separated by centrifugation at 3000 g for 10 minutes at 4°C. The plasma was protected and stored at −80°C until analyzed by liquid chromatography-mass spectrometry/mass spectrometry (LC-MS/MS) for quantification.
Plasma samples were thawed at room temperature and then vortexed to ensure sample solution homogeneity. Firstly, a 20 μL aliquot of each plasma sample were loaded into 1.5 mL tube, 100 μL acetonitrile was added, vortexed then centrifuged at 13000 rpm for 10 min. the supernatant was collected. The plasma cobalt complex 2 concentrations were quantified using Thermo HPLC Ultimate 3000 system. The compound in plasma samples were analyzed by using the Agilent Zorbax Eclipse Plus C-18 column with a particle size of 1.8 μm. The parameters of the gradient elution program were applied as follows: mobile phase A (0.1% formic acid in water) and mobile phase B acetonitrile: 0–5.5 min, 20% B; 5.5–7 min, 90% B; 7–10 min, 20% B. The column and autosampler temperature were maintained at 40 and 4 °C, respectively. The gas temperature was set 320 °C with flow rate (0.8 mL/min), gases were set at 10 psi for the nebulizer, capillary, 3500 V.

The test system of data set [3] is SGC-7901 cisplatin-resistant cancer cells. Briefly: MTT cytotoxicity, cisplatin-resistant SGC-7901. Format: cell-based.
Text: as §1, §2

Data set [4] deals with LLC-1 (mouse lung cancer) cells. Briefly: MTT cytotoxicity assay, LLC-1. The following applies: LLC-1, MTT, 72 h. Format: cell-based. As to the method:
as §2
For orientation: Formazan colour is commonly taken as a measure of viable cells.

Data set [5] has as its system MCF-7 taxol-sensitive cancer cells. In words: MTT cytotoxicity, taxol-sensitive MCF-7. Format: cell-based. The following applies: 72 h.
Text: as §1, §2

The test system of data set [6] is HCT116 p53^-/- colon cancer cells. In words: MTT cytotoxicity, HCT116 p53-/-. It is filed as cell-based, human.
Text: as §1, §2

Another data set relates to H1299 cell. In words: Western blot of cell invasion markers MMP-9 and ICAM-1. It is filed as cell-based, human. The following applies: 0.5 μM. As to the method: Western blot analysis was carried out following standard methods. Cells were lysed with RIPA lysis buffer with protease and phosphatase inhibitor cocktails. Protein concentrations were determined using the Bio-Rad protein assay (Bio-Rad Laboratories, Inc., Hercules, CA, USA). After electrophoresis, the proteins from SDS/PAGE were electro-transferred to a Hybond enhanced chemiluminescence nitrocellulose membrane (Amersham Biosciences, NJ, USA), which was then blocked with 5% dried milk for 1 hour. After washing, the blot was incubated with the indicated primary antibodies overnight at 4°C. Detection was performed using appropriated HRP-conjugated secondary antibodies for 1 hour at RT followed by chemiluminescence (Invitrogen).

The test system of data set [7] is HepG2 (liver cancer) cells. In words: MTT cytotoxicity assay, HepG2. It is filed as cell-based. The following applies: 72 h. As to the method:
as §2

P-gp, sequence (P08183 whole entry): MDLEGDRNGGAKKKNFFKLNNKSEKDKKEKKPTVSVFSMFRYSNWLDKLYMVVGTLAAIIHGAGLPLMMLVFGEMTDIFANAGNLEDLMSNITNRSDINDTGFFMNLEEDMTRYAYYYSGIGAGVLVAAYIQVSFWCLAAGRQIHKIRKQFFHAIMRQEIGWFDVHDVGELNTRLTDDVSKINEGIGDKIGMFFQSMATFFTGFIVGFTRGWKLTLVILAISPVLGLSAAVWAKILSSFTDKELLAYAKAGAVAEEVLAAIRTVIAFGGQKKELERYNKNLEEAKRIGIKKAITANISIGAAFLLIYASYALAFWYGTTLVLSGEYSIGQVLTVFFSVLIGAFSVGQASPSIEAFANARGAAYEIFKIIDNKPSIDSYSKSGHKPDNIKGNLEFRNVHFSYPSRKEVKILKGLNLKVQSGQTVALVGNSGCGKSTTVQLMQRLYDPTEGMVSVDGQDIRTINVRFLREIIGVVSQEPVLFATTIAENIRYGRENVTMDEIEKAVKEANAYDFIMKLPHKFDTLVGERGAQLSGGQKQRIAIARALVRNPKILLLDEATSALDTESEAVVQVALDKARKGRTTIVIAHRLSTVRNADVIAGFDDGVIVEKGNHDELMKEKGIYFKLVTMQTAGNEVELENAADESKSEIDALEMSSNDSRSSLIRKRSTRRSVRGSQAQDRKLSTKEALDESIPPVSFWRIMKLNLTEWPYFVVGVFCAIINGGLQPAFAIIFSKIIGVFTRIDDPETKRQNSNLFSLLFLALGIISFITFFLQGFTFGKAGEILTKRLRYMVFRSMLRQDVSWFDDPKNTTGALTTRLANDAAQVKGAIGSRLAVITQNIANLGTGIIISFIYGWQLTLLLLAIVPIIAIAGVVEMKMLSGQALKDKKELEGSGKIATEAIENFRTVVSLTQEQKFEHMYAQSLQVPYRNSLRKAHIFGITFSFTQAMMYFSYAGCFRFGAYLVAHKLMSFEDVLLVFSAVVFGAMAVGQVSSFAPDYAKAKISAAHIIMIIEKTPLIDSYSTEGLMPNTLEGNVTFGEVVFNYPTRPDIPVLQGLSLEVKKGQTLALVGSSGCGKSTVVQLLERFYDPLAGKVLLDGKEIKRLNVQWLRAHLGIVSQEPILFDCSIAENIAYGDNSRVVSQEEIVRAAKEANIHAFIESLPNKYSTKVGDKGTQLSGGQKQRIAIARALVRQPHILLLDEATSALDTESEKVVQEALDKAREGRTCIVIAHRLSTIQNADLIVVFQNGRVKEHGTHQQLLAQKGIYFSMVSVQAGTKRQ
Description for P-gp: Taxol-resistant cancer cells were seeded in 6 well plate with 2 × 10^5 cells each well and cultured for 24 h at 37°C in an atmosphere containing 5% CO2. […] Subsequently, 5 μg/mL of Rho123 was added to each well and the wells were incubated for another 1 h at 37°C. The accumulation of Rho123 was stopped by washing the cells five times with ice-cold PBS. The cells were then resuspended in 400 μL PBS for flow cytometry analysis. Intracellular fluorescence was measured using a flow cytometer at an excitation wavelength of 488 nm and emission wavelength of 525 nm. All data acquisition and analysis were performed with CellQuest (BD Biosciences, San Jose, CA, USA) with at least three independent experiments. Results were shown as the mean of fluorescence intensity.

Take `Cc1ccnc(-c2cc(C)ccn2)c1.Cc1ccnc(-c2cc(C)ccn2)c1.Cc1ccnc(-c2cc(C)ccn2)c1.F[P-](F)(F)(F)(F)F.F[P-](F)(F)(F)(F)F.F[P-](F)(F)(F)(F)F.[Co+3]` [complex 2, [Co^III(4,4’-Me2-bpy)3](PF6)3]: the “effect on P-gp activity (Rho123 accumulation)” value on P-gp is listed as “induced inhibitory effects towards P-gp activity in all the treated cell lines”. Further, the pIC50 in data set [1] was 4.94; in [3] (SGC-7901 cisplatin-resistant, MTT, 72 h) it was 4.90; in [4], 5.47; in [5], 5.40; in data set [6] (HCT116 p53-/-, MTT, 72 h), 5.04; in data set [7], 5.26. For the same compound, the “species detected in blood samples by HPLC-MS” value in data set [2] (40 mg/kg intraperitoneal of complex 2, 5 min to 24 hours) is recorded as “neither cobalt complex 2 nor its decomposed species was observed”. For the same compound, in data set [2] (40 mg/kg intraperitoneal, after 2-hour time interval), the metabolism after absorption result is “almost complete metabolism”. For the same compound, the “Resistant Factor, SGC-7901” value in data set [3] (cisplatin-resistant over cisplatin-sensitive IC50, SGC-7901) is listed as 1.14. Besides, in data set [6] (IC50 p53-/- over IC50 p53+/+), the “Resistant Factor, HCT116 p53-/- vs p53+/+” value stood at 0.59. Moreover, the “expression of MMP-9 and ICAM-1” value with H1299 cell is “significantly downregulated”.
